# Measured values published in patent publication US4569926A, “Stimulation of phagocytosis with somatostatin” (Brigham and Women's Hospital, priority 1983, dated 1986).
# How the values were obtained:
# [1] = system: Kupffer cells and RES; assay: colloidal carbon clearance from the blood (phagocytic index K); type: in vivo, rat; details: for clearing potency order by change in K caused by 100 μg of treatment (ΔK/100 μg): crude comparison, rank order
# Protocol: (§1) All of the experiments were performed in female Spraque-Dawley rats (ESS Laboratories, Lynnfield, Mass.) with an initial body weight of 150-180 g, and with unlimited access to Purina laboratory chow and tap water. Control and experimental groups consisted of 3-4 rats. Each experiment was repeated at least twice and the results were pooled. Linear or cyclic somatostatin (Serono) was injected under mild ether anesthesia at 10, 50, 100 or 250 μg in 0.5 ml of saline into the jugular vein once daily for 4 consecutive days in the dose-response study (FIG. 1). Control animals were injected with the same amount of saline. In the time-response study, 0, 1, 2, 3 or 4 daily doses of somatostatin, 50 μg, were injected i.v. (FIG. 2). In the comparative experiments, somatostatin, 250 μg, i.v., was given as in the first study, and standard doses of zymosan (Sigma 2,500 μg/100 g i.v.; twice, 48 and 24 hr before colloidal carbon) and the reticuloendothelial system (RES) blocker gadolinium chloride (Sigma; 500 μg/100 g i.v.; once, 24 hour prior to india ink) were administered to additional groups of rats (FIG. 3). In all of the experiments, 0.1 ml/100 g of the supernatant of centrifuged (3000 rpm/15 min) colloidal carbon (Wagner's india ink) was injected i.v. under mild ether anesthesia. Blood samples (50 μl ) were obtained with heparinized glass capillaries and by puncture of the retro-orbital venous plexus at 3, 6, 12 and 24 minutes after the administration of carbon. The blood samples were lysed in 2 ml of 0.1% Na2 CO3 solution. After 24 minutes, the rats were killed, and the livers were perfused through the portal vein with 20 ml saline to remove trapped blood. Samples of liver, spleen, lung and kidney were fixed in 10% formalin and subsequently processed for light microscopy. A piece of liver was digested in concentrated mineral acid, and, following organic extraction, the concentration of carbon, as in blood hemolysates, was measured spectrophotometrically at 660 nm using the method of Takahashi and Matsuoka (J. Toxicol. Sci., S., 1 (1980).
# The phagocytic index or K value was calculated as described by others (Takahashi and Matsuoka, ibid; Biozzi et al, J. Exp. Pathol., 34, 441 (1953)) to indicate the carbon clearance for the blood. Since it was evident that the effect of treatment was maximal on carbon clearance during the first 6 or 12 minutes, K values were obtained only for this time interval. For statistical evaluation, Student's two-tailed t-test was used.
# [2] = system: Kupffer cells and RES; assay: hepatic uptake of colloidal carbon; type: in vivo, rat; details: zymosan 2,500 μg/100 g i.v. twice, 48 and 24 hr before carbon; GdCl3 500 μg/100 g i.v. once, 24 hour before (FIG. 3)
# Protocol: as §1, with “In all of the experiments, 0.1 ml/100 g of the supernatant of centrifuged (3000 rpm/15 min) colloidal carbon (Wagner's india ink) was injected i.v. under mild ether anesthesia. Blood samples (50 μl ) were obtained with heparinized glass capillaries and by puncture of the retro-orbital venous plexus at 3, 6, 12 and 24 minutes after the administration of carbon. The blood samples were lysed in 2 ml of 0.1% Na2 CO3 solution. After 24 minutes, the rats were killed, and the livers were perfused through the portal vein with 20 ml saline to remove trapped blood. Samples of liver, spleen, lung and kidney were fixed in 10% formalin and subsequently processed for light microscopy.” left out
# [3] = system: Kupffer cells; assay: light microscopic examination of liver sections for carbon particles; type: in vivo, rat; details: periportal areas, 24 minutes after carbon
# Protocol: as §1, with “In all of the experiments, 0.1 ml/100 g of the supernatant of centrifuged (3000 rpm/15 min) colloidal carbon (Wagner's india ink) was injected i.v. under mild ether anesthesia. Blood samples (50 μl ) were obtained with heparinized glass capillaries and by puncture of the retro-orbital venous plexus at 3, 6, 12 and 24 minutes after the administration of carbon. The blood samples were lysed in 2 ml of 0.1% Na2 CO3 solution. After 24 minutes, the rats were killed, and the livers were perfused through the portal vein with 20 ml saline to remove trapped blood. Samples of liver, spleen, lung and kidney were fixed in 10% formalin and subsequently processed for light microscopy.” left out
# [4] = pretreatment with exogenous somatostatin; cited from earlier work
# [5] = in vivo; cited from earlier work
# [6] = in vivo; cited from earlier work; remark: listed apart in the source
Compound,clearing potency order by change in K caused by 100 μg of treatment (ΔK/100 μg) [1],"carbon clearance from the blood, comparative experiment ([1]; zymosan 2,500 μg/100 g i.v. twice, 48 and 24 hr before carbon, GdCl3 500 μg/100 g i.v. once, 24 hour before (FIG. 3))","uptake of the carbon to the liver, comparative experiment [2]","colloidal carbon clearance from the blood, dose-response ([1]; 10 μg i.v. once daily for 4 days (FIG. 1))","colloidal carbon clearance from the blood, dose-response ([1]; doses of 50, 100 or 250 μg i.v. once daily for 4 days (FIG. 1))","colloidal carbon clearance from the blood ([1]; female Sprague-Dawley rats, somatostatin i.v. once daily for 4 days vs saline, effect most dramatic during first 6-12 minutes (FIG. 1))","phagocytic index or K value ([1]; time-response study, 50 μg i.v., three or four doses (one per day) (FIG. 2))",carbon deposition in liver macrophages (light microscopy) [3],cysteamine-induced duodenal ulcer [4],gastric acid output [4],effect on experimentally induced pancreatitis [5],effect on adrenal and lung lesions [6]
"[Cl][Gd]([Cl])[Cl] [GdCl3, gadolinium chloride]",somatostatin >zymosan >GdCl3,inhibited,inhibited,,,,,,,,,
somatostatin,somatostatin >zymosan >GdCl3,,,less effective than the other doses,very similar results,markedly accelerated,significantly enhanced,caused numerous macrophages to take up carbons,prevents,minimal inhibition,beneficial effect,beneficial effect
